# Key:
# [1] = tested on: ZR-75-30 cells with amplified centrosomes (ZR-A); test: Sub-G1 population in ZR-75-30 cells with amplified centrosomes (ZR-A) versus parent cells; format: cell-based; details: 25 μM, 48 h
# Method: Panel A depicts representative DNA histograms comparing cell-cycle kinetics of ZR-75-30 cells and ZR-A cells treated with bromonoscapine (BN, 25 μM), griseofulvin (GF, 25 μM) or PJ34 (25 μM), respectively for 48 h. […] Panel B depicts a quantitative comparison of sub-G1 population in ZR-75-30 and ZR-A cells upon treatment with the three drugs with the same concentration (25 μM) for the same duration (48 h).
# Accordingly, these cells can be pharmacologically manipulated with aphidicolin to generate extra centrosomes. […] Following aphidicolin wash-out, cells were stained using anti-centrin-2 antibodies to verify extra centrosomes by immunofluorescence confocal microscopy. About ˜60% ZR-75-30 cells generated extra centrosomes (6-8 per cell) and were evaluated for their sensitivity to the three drugs, griseofulvin, bromonoscapine, and PJ34, and compared with parent ZR-75-30 cells with normal centrosomes.
# HeLa cells = test: Peak subG1 fraction by flow cytometry after declustering drugs, HeLa cells; format: cell-based
# Method: (§1) To evaluate the impact of putative declustering drugs on cell cycle progression and hypodiploidy (<2N DNA content, which may indicate apoptotic cells), MDA-MB-231 (231), PC3, and HeLa cells were treated with different concentrations of declustering drugs, stained with propidium iodide, labeled with anti-MPM2 antibody, and then assessed by flow cytometry at multiple time points over 48 hr. […] The duration, highest degree, and rapidity of onset of MA varied between drugs, drug concentrations, and cell lines (data not shown). In general, the maximum MA achieved was less pronounced in Nos- and PJ-treated cells. Drug-induced onset of MA was corroborated by substantial increases in cyclin B1 levels in all cell lines. For most cases, prolonged MA (˜24 hr in duration) was followed by a substantial increase in the subG1 population fraction. […] Instances where the subGl fraction was elevated without cleaved caspase-3 may either represent caspase-independent cell death or the presence of hypodiploid cells whose fate is unclear. In general, no consistent associations between the extent, duration, or timing of MA within drugs or across cell lines was found.
# [2] = tested on: mammary fibrocystic (MCF10A) cells; test: Peak subG1 fraction after declustering drugs, non-malignant MCF10A cells; format: cell-based; details: for peak subG1 percent compared to controls: MCF10A cells; for Peak subG1 percents over 48 h: MCF10A
# Method: as §1
# (§2) To determine whether the CA-inducing activity of declustering drugs is restricted to cancer cells, two non-malignant cell lines, mammary fibrocystic (MCF10A) cells and adult human dermal fibroblasts (HDFs) were treated with these drugs. […] In comparison, 10 and 25 µM RBN increased peak CA over controls in interphase cells (p<0.001 and p=0.001, respectively), with the lower concentration dramatically augmenting peak CA to 56% of cells versus 15% for the higher dose (FIG. 13, panel B).
# Importantly, a therapeutic window exists for several of these agents at the concentrations and in the cell lines tested compared to cancer cells.
# PC3 cells = test: Peak subG1 fraction by flow cytometry after declustering drugs, PC3 cells; format: cell-based
# Method: as §1
# MDA-MB-231 (231) cells = test: Peak subG1 fraction by flow cytometry (propidium iodide) after declustering drugs, 231 cells; format: cell-based, human
# Method: as §1
# [3] = tested on: adult human dermal fibroblasts (HDFs); test: Peak subG1 fraction after declustering drugs, non-malignant HDFs; format: cell-based; details: for Peak subG1 percents over 48 h: HDF; for death in cancer cell lines vs. HDFs: both concentrations
# Method: as §1, §2
# In HDFs, all the drugs tested increased peak subG1 over controls in a significant fashion (p<0.01 for all) (Table 2). […] Thus, it appears that there may be clinically relevant therapeutic windows for these drugs depending on the type of cancer and the drug dosage.
# MCF10A cells = test: Centrosome amplification (CA) by microscopy, MCF10A cells; format: cell-based
# Method: (§3) Consequently, CA was assessed in cultures treated with different concentrations of declustering drugs for 6, 12, 18, or 24 h and untreated controls via microscopy. Centrosomes were identified by γ-tubulin and centrin-2 colocalization at discrete foci.
# as §2
# [4] = tested on: adult human dermal fibroblasts (HDFs); test: Centrosome amplification (CA) by microscopy, HDFs; format: cell-based
# Method: as §3, §2
# N1E-115 cells [5] = test: Neuritogenesis (neurite extension) in serum-starved N1E-115 cells; format: cell-based, murine; details: Mus musculus, N1E-115, 48 h, RedBr-Nos 5 μM, Griseofulvin 10 μM
# Method: N1E-115 cells grown in serum-starved (SS) medium were evaluated to determine the extent of neurite formation after 48 h of treatment with RedBr-Nos (5 μM), Griseofulvin (10 μM), PJ-34 (10 μM), Paclitaxel (0.05 μM) treatment or untreated control cells (i.e., serum-starved medium (SS) alone). Panels Ai and Aii depict quantitative bar graphs representing the average length of neurites and percentage of population of cells showing neurite length >10 μm, respectively. A hundred cells were counted in each case. […] Panel B depicts an immunoblot showing CLASP1 expression levels in control (C) and CLASP1 siRNA-transfected N1E-115 cells.
# Neuritogenesis is a process in nerve cells involving the extension of polarized, elongated neurites. N1E-115 cells usually extend only one major neurite per cell, which can vary in length from 5 to 500 μm. The growth cones of the neurites serve as primary focal points of motility. The effect of declustering agents on cell motility was evaluated by assessing the length and frequency of neurites formed in a serum-free medium on a laminin-coated surface.
# N1E-115 cells [6] = test: Drug sensitivity (IC50) of N1E-115 cells; format: cell-based, murine; details: Mus musculus; N1E-115 cells (data not shown)
# N1E-115 cells [7] = test: Ki67 and cleaved caspase-3 immunostaining of serum-starved N1E-115 cells; format: cell-based, murine; details: RedBr-Nos 5 μM, Griseofulvin 10 μM, PJ-34 10 μM
# N1E-115 cells [8] = test: Vinculin localization in serum-starved N1E-115 cells; format: cell-based, murine; details: serum-starved (SS) cells
# Description: Vinculin stabilizes cell-substrate contacts in neuronal cells undergoing neuritogenesis, while activation by actin-binding proteins mobilizes vinculin to focal adhesions. To determine the localization of vinculin in the neurite extensions and the effect of declustering agents on its localization, N1E-115 cells were immunostained cells for vinculin and stained F-actin using rhodamine-phalloidin.
# N1E-115 cells [9] = test: Golgi (GM130) and γ-tubulin co-immunostaining of drug-treated N1E-115 cells; format: cell-based, murine; details: data not shown
# Description: The Golgi, which is primarily responsible for posttranslational modification and protein sorting, also functions as a microtubule-organizing center (MTOC). It has been hypothesized that supernumerary centrosomes may better organize the Golgi to enhance directional cell migration. To investigate what happens to the Golgi upon declustering drug-induced dispersal of the interphase centrosomal cluster, drug-treated N1E-115 cells were co-immunostained with GM130 (a cis-Golgi matrix protein crucial for maintaining its structure) and γ-tubulin.
# N1E-115 cells [10] = test: Interphase declustering index (DI) in N1E-115 cells; format: cell-based, murine; details: 6-h treatment, 25 interphase cells, drugs at their respective IC50 concentrations
# Method: To evaluate their effect on interphase clustering, N1E-115 cells were treated with these drugs at their respective IC50 concentrations for 0, 3, 6 and 9 h and co-immunostained for γ-tubulin and α-tubulin to evaluate centrosomal spread and microtubule nucleation status, respectively.
# Cell cycle phases were further evaluated via lamin A/C immunostaining to distinguish interphase declustering events from prophase centrosomal spread. To quantitate the spread of the interphase centrosomal cluster, a 3D reconstruction of z-stack images of 25 randomly-selected interphase cells from the 6-h treatment group of each drug were generated. By defining an ROI (region of interest) around the interphase centrosomal cluster, the volume of the cluster spread was calculated using Volocity software. Likewise, defining an ROI using the cell periphery provided the cell volume.
compound,measurement,setting,value
"COc1ccc2c(c1OC)C(=O)O[C@@H]2[C@H]1c2c(c(Br)c3c(c2OC)OCO3)CCN1C [BN, bromonoscapine]",sub-G1 population versus parent ZR-75-30 cells,[1],much higher sub-G1 population compared to parent ZR-75-30 cells
same,Peak subG1 percents over 48 h,HeLa cells; 10 μM,42.0%
same,Peak subG1 percents over 48 h,HeLa cells; 25 μM,54.9%
same,maximum (peak) subG1 fraction relative to control,HeLa cells; 25 μM,4.4 × control
same,peak subG1 percent compared to controls,[2],did not cause a significant increase
same,Peak subG1 percents over 48 h,[2]; 10 μM,3.5%
same,Peak subG1 percents over 48 h,[2]; 25 μM,3.0%
same,Peak subG1 percents over 48 h,PC3 cells; 10 μM,46.0%
same,Peak subG1 percents over 48 h,PC3 cells; 25 μM,42.8%
same,maximum (peak) subG1 fraction relative to control,PC3 cells; 25 μM,9.2 × control
same,Peak subG1 percents over 48 h,MDA-MB-231 (231) cells; 10 μM,32.5%
same,Peak subG1 percents over 48 h,MDA-MB-231 (231) cells; 25 μM,65.2%
same,maximum (peak) subG1 fraction relative to control,MDA-MB-231 (231) cells; 25 μM,9.3 × control
same,Peak subG1 percents over 48 h,[3]; 10 μM,16.5%
same,Peak subG1 percents over 48 h,[3]; 25 μM,20.4%
same,death in cancer cell lines vs. HDFs,[3],the same was true for 231 and PC3 cells
same,CA / peak extent of CA versus control levels,"MCF10A cells; interphase and mitotic MCF10A cells, both concentrations (10 and 25 μM), over 24 h",neither concentrations of Nos or BN significantly increased CA over control levels
same,extent of CA over controls,"[4]; HDFs, any of the concentrations or time points assessed",did not significantly increase the extent of CA over controls
"COC1=CC(=O)C[C@@H](C)[C@]12Oc1c(Cl)c(OC)cc(OC)c1C2=O [GF, griseofulvin]",sub-G1 population versus parent ZR-75-30 cells,[1],much higher sub-G1 population compared to parent ZR-75-30 cells
same,Peak subG1 percents over 48 h,HeLa cells; 25 μM,59.5%
same,Peak subG1 percents over 48 h,HeLa cells; 50 μM,79.0%
same,maximum (peak) subG1 fraction relative to control,HeLa cells; 50 μM,4.3 × control
same,inhibition at 10 µM,N1E-115 cells [5],70 to 80%
same,susceptibility / toxicity in MCF10A cells versus cancer cell lines,[2]; 25 μM,All cancer cell lines were found to be more susceptible
same,susceptibility of MCF10A cells versus cancer cell lines,[2]; 50 μM,MCF10A and PC3 cells were equally susceptible
same,peak subG1 percent compared to controls,[2],did increase peak SubG1
same,Peak subG1 percents over 48 h,[2]; 25 μM,22.7%
same,Peak subG1 percents over 48 h,[2]; 50 μM,35.1%
same,IC50,N1E-115 cells [6],25 µM
same,Peak subG1 percents over 48 h,PC3 cells; 25 μM,33.7%
same,Peak subG1 percents over 48 h,PC3 cells; 50 μM,39.5%
same,maximum (peak) subG1 fraction relative to control,PC3 cells; 50 μM,16.3 × control
same,Ki67-positive cells,N1E-115 cells [7],high proportion of Ki67-positive cells
same,vinculin localization and focal adhesion points,N1E-115 cells [8],complete internalization of vinculin and complete loss of focal adhesion points
same,fragmentation of the interphase Golgi complex,N1E-115 cells [9],most robust effect
same,Peak subG1 percents over 48 h,MDA-MB-231 (231) cells; 25 μM,62.0%
same,maximum (peak) subG1 fraction relative to control,MDA-MB-231 (231) cells; 25 μM,6.4 × control
same,Peak subG1 percents over 48 h,MDA-MB-231 (231) cells; 50 μM,60.0%
same,Peak subG1 percents over 48 h,[3]; 25 μM,32.9%
same,Peak subG1 percents over 48 h,[3]; 50 μM,38.3%
same,death in cancer cell lines vs. HDFs,[3],more death in 231 and HeLa cells
same,peak interphase CA,"MCF10A cells; interphase MCF10A cells, 25 and 50 μM",13-16%
same,CA in mitotic cells versus controls,"MCF10A cells; mitotic MCF10A cells, 25 and 50 μM",no increase was observed
same,interphase declustering index (DI): ratio of average cluster volume to average cell volume,N1E-115 cells [10],0.28
same,peak CA,"[4]; interphase HDFs only, 25 and 50 μM",14-15%

# Reference: patent US10242153B2, “Method for determining the risk profile of neoplastic tissue” (NOVAZOI THERANOSTICS, priority 2014, dated 2019)
